From article PMC5354814, “In silico and in vitro drug screening identifies new therapeutic approaches for Ewing sarcoma” (Oncotarget, 2016)
Read-outs that look alike come from different tables or passages of the source.

What was measured:
[1] = Auranofin dose tolerance studies (maximum tolerated dose); assay type: in vivo, BALB/c mice
Excerpt: These findings led us to develop and assess injectable (i.v. and i.p.) formulations of auranofin. By defining maximum tolerated dose (MTD) following i.v. and i.p. administration of solution and suspension formulations of auranofin, our intent was to evaluate auranofin alone and in combination with ganetespib at MTD in mouse xenograft studies using the more convenient i.p. route of administration. Following administration of the solution formulation of auranofin i.v. and i.p., the maximum tolerated dose was estimated at 1 mg/kg and 6 mg/kg, respectively. Following a single i.p. suspension dose of auranofin, the maximum tolerated dose was 16 mg/kg. This dose was reduced to 12 mg/kg and dose tolerance was evaluated after 5 daily doses of auranofin suspension i.p. to determine the effects of the accumulation of gold in the blood due to the slow elimination of gold. Based on the i.p. suspension dose tolerance studies, the auranofin suspension formulation and dose level of 12 mg/kg was selected for evaluation in xenograft mouse studies.
The auranofin dose tolerance and pharmacokinetics study protocols were approved by the KU-Lawrence Institutional Animal Care and Use Committee (KU-IACUC). Subchronic dose tolerance studies were conducted in BALB/c mice to support the design of EWS mouse xenograft studies. By establishing the Maximum Tolerated Dose (MTD), we defined the upper limit of doses selected for EWS mouse xenograft and in vivo pharmacokinetics studies. Mice received a single dose of auranofin solution and suspension administered by i.v. and i.p. routes of administration. Following a starting dose of 1 mg/kg, doses were escalated in subsequent mice until intolerable drug-related adverse effects were observed. MTD was defined as the maximum dose that was not associated dose-limiting adverse effects in mice. The MTD was confirmed in a group of 3 mice. Mice were continuously monitored for up to 4 hours post-dose.

[2] = Dissociation of auranofin in plasma, whole blood and simulated gastric fluid; assay type: in vitro ADME; details: unpublished results
[3] = tested on: A673 cells; assay: siRNA silencing of EWS-FLI1 followed by auranofin treatment (CellTiter-Blue); assay type: cell-based; details: then auranofin 72 h
Procedure: To knock down the expression of EWS-FLI1 in A673 Ewing cells, we designed two different siRNAs, corresponding to the sequence within the 3′ downstream half of EWS-FLI1 mRNA (siFLI1-#3) and the sequence of the breakpoint of EWS-FLI1 type I mRNA (siBPEF1) respectively. To examine whether the siRNAs could abolish the expression of EWS-FLI1, the effects of siRNAs on the protein levels of EWS-FLI1 were analyzed by western blot (see Supplementary methods).
(B) Cell viability was assessed by the CellTiter Blue assay in A673 cells treated by siControl, siFLI1-#3 or siBPEF1 for 48 h then followed by the incubation of auranofin ranging from 7.8 nmol/L to 1 μmol/L for 72h. Data are presented as the mean ± SD of three independent experiments performed in triplicate. (C) In vivo studies of auranofin, ganetespib and the combination treatment in an EWS xenograft mice model (n = 12 per group). The percentage of survival rate in control, auranofin treated, ganetespib treated, and auranofin in combination with ganetespib treated groups.
Predict drugs using three computational resolved on the 4–20% Mini-PROTEAN TGXTM approaches Precast Gels (Bio-Rad, Hercules, CA) and transferred onto PVDF membranes (Bio-Rad, Hercules, CA).
Disease-based approach: We used the disease Immunoblotting was done with the following antibodies: signature to query the drug expression database and rabbit polyclonal anti-FLI1 (C-19) (Santa Cruz selected the top 20 negatively scored hits. siRNA-based Biotechnology, Dallas, TX), mouse monoclonal anti-approach: We used the siEWS-FLI1 mediated signature β-actin (Sigma, St. Louis, MO), HRP conjugated goat to query the drug expression database and selected the top anti-rabbit IgG (Cell Signaling, Danvers, MA) and 20 positively scored hits. […] Membranes were developed using ECL database and select the top 20 negatively scored hits. […]
(Lafayette, CO). […] After 72 h of auranofin treatment, cell viability was evaluated using the 18. […]

`CC(=O)OC[C@H]1O[C@@H]([S-])[C@H](OC(C)=O)[C@@H](OC(C)=O)[C@@H]1OC(C)=O.CCP(CC)CC.[Au+]` [Auranofin, auranofin] gave a maximum tolerated dose ([1]; solution formulation, i.p.) of 6 mg/kg, a maximum tolerated dose ([1]; solution formulation, i.v.) of 1 mg/kg and a maximum tolerated dose ([1]; suspension, single i.p. dose) of 16 mg/kg. For the same molecule, the “stability in plasma and whole blood ex vivo and simulated gastric fluid in vitro” value [2] was “immediately and completely dissociates”, the IC50 ([3]; siBPEF1 48 h, read-out: IC50 (siBPEF1)) was over 1000 nM and the IC50 ([3]; siControl 48 h, read-out: IC50 (siControl)) was 270 ± 20 nM. For the same molecule, the IC50 ([3]; siFLI1-#3 48 h, read-out: IC50 (siFLI1-#3)) was over 1000 nM.
